Measurements as given in ChEMBL document CHEMBL4507264, “Data for DCP probe BAY-7598” (2021).
Calls of active or inactive are those of the source. No cut-off for these calls is given here.

How the values were obtained:
[1] = biological target: Serine/threonine-protein kinase haspin (Homo sapiens) (UniProt Q8TF76); conditions: Compound concentration 1000.0 nM
Mus musculus [2] = species: Mus musculus; assay: Inhibition of Phorbol Ester at 10 µM in the Eurofins-Panlabs radioligand binding assay (Eurofins_assay_264500); design: ligand concentration 3 nM; conditions: Compound concentration 10.0 uM
[3] = biological target: Sigma non-opioid intracellular receptor 1 (Homo sapiens) (UniProt Q99720); assay: Inhibition of Sigma 1 at 10 µM in the Eurofins-Panlabs radioligand binding assay (Eurofins_assay_278110); design: ligand concentration 8 nM; conditions: Compound concentration 10.0 uM
Oryctolagus cuniculus = species: Oryctolagus cuniculus; assay: Inhibition of Purinergic P2X at 10 µM in the Eurofins-Panlabs radioligand binding assay (Eurofins_assay_268700); format: protein assay; conditions: Compound concentration 10.0 uM
[4] = biological target: Adenosine receptor A3 (Homo sapiens) (UniProt P0DMS8); conditions: Compound concentration 10.0 uM
[5] = biological target: Estrogen receptor (Homo sapiens) (UniProt P03372); conditions: Compound concentration 10.0 uM
[6] = biological target: Sigma non-opioid intracellular receptor 1 (Homo sapiens) (UniProt Q99720); assay: Sigma 1 Eurofins-Panlabs radioligand binding assay; design: ligand concentration 8 nM; conditions: Compound concentration 10.0 uM
[7] = biological target: Prostaglandin E2 receptor EP4 subtype (Homo sapiens) (UniProt P35408); assay: Inhibition of Prostanoid EP4 at 10 µM in the Eurofins-Panlabs radioligand binding assay (Eurofins_assay_268420); design: ligand concentration 1 nM; conditions: Compound concentration 10.0 uM
[8] = biological target: L-type calcium channel, benzothiazepine site (Cav1.2 alpha-1C) (Homo sapiens, UniProt Q13936); assay: Inhibition of Calcium Channel L-Type, Benzothiazepine at 10 µM in the Eurofins-Panlabs radioligand binding assay (Eurofins_assay_214510); design: ligand concentration 2 nM, non-specific ligand with concentration 10 µM Diltiazem, incubation time 3h, incubation temperature 4 °C; conditions: male, Wistar, rat, rat whole brain preparation, probe [3H] Diltiazem; compound concentration 10 uM; target entry is the homologue from another species
Mus musculus [9] = species: Mus musculus; assay: Inhibition of Interleukin IL-1 at 10 µM in the Eurofins-Panlabs radioligand binding assay (Eurofins_assay_243520); design: ligand concentration 0.1 nM; conditions: Compound concentration 10.0 uM
Rattus norvegicus [10] = species: Rattus norvegicus; assay: Inhibition of Rolipram at 10 µM in the Eurofins-Panlabs radioligand binding assay (Eurofins_assay_268811); format: protein assay; design: ligand concentration 1.8 nM; conditions: Compound concentration 10.0 uM
[11] = biological target: Gamma-aminobutyric acid type B receptor subunit 1 (Homo sapiens) (UniProt Q9UBS5); assay: Inhibition of GABAB1A at compound concentration of 10.0 uM in the Eurofins-Panlabs radioligand binding assay (Eurofins_assay_228610); design: ligand concentration 4 nM; conditions: Compound concentration 10.0 uM
[12] = biological target: T1, GABA-A receptor; anion channel (Rattus norvegicus) (UniProt O09028+P15431+P18506+P18508+P19969+P20236+P23574+P23576+P28471+P28473+P30191+P62813+P63079+P63138+Q91ZM7+Q9ES14); assay: Inhibition of GABAA, Muscimol, Central at 10 µM in the Eurofins-Panlabs radioligand binding assay (Eurofins_assay_226500); format: protein-complex assay; conditions: Compound concentration 10.0 uM
[13] = biological target: Cannabinoid receptor 1 (Homo sapiens) (UniProt P21554); conditions: Compound concentration 10.0 uM
[14] = biological target: D(3) dopamine receptor (Homo sapiens) (UniProt P35462); conditions: Compound concentration 10.0 uM
[15] = biological target: Macrophage metalloelastase (Homo sapiens, UniProt P39900); assay: Biophysical assay (SPR biosensor-based assay)
[16] = biological target: Endothelin receptor type B (Homo sapiens) (UniProt P24530); conditions: Compound concentration 10.0 uM
[17] = biological target: D(1A) dopamine receptor (Homo sapiens) (UniProt P21728); conditions: Compound concentration 10.0 uM
[18] = biological target: Mu-type opioid receptor (Homo sapiens) (UniProt P35372); conditions: Compound concentration 10.0 uM
[19] = biological target: Acetylcholine receptor subunit alpha (Homo sapiens) (UniProt P02708); assay: Inhibition of Nicotinic Acetylcholine D1, Bungarotoxin at 10 µM in the Eurofins-Panlabs radioligand binding assay (Eurofins_assay_258700); conditions: Compound concentration 10.0 uM
[20] = biological target: Glutamate NMDA receptor (Rattus norvegicus) (UniProt P35439+Q00959+Q00960+Q00961+Q62645+Q8VHN2+Q9R1M7); conditions: Compound concentration 10.0 uM
[21] = biological target: Histamine H3 receptor (Homo sapiens) (UniProt Q9Y5N1); conditions: Compound concentration 10.0 uM
[22] = biological target: Endothelin-1 receptor (Homo sapiens) (UniProt P25101); conditions: Compound concentration 10.0 uM
[23] = biological target: Kappa-type opioid receptor (Homo sapiens) (UniProt P41145); conditions: Compound concentration 10.0 uM
[24] = biological target: Platelet-activating factor receptor (Homo sapiens) (UniProt P25105); assay: Inhibition of Platelet Activating Factor (PAF) at 10 µM in the Eurofins-Panlabs radioligand binding assay (Eurofins_assay_265010); conditions: Compound concentration 10.0 uM
Rattus norvegicus [25] = species: Rattus norvegicus; assay: Inhibition of Glutamate, NMDA, Phencyclidine at 10 µM in the Eurofins-Panlabs radioligand binding assay (Eurofins_assay_233000); format: protein-complex assay; conditions: Compound concentration 10.0 uM
[26] = biological target: Neuropeptide Y receptor type 1 (Homo sapiens) (UniProt P25929); assay: Inhibition of Neuropeptide Y Y1 at 10 µM in the Eurofins-Panlabs radioligand binding assay (Eurofins_assay_257010); conditions: Compound concentration 10.0 uM
[27] = biological target: B1 bradykinin receptor (Homo sapiens) (UniProt P46663); assay: Inhibition of Bradykinin B1 at 10 µM in the Eurofins-Panlabs radioligand binding assay (Eurofins_assay_212510); conditions: Compound concentration 10.0 uM
[28] = biological target: T2, Muscarinic acetylcholine receptor M1 (Homo sapiens) (UniProt P11229); conditions: Compound concentration 10.0 uM
T2 sequence (whole entry): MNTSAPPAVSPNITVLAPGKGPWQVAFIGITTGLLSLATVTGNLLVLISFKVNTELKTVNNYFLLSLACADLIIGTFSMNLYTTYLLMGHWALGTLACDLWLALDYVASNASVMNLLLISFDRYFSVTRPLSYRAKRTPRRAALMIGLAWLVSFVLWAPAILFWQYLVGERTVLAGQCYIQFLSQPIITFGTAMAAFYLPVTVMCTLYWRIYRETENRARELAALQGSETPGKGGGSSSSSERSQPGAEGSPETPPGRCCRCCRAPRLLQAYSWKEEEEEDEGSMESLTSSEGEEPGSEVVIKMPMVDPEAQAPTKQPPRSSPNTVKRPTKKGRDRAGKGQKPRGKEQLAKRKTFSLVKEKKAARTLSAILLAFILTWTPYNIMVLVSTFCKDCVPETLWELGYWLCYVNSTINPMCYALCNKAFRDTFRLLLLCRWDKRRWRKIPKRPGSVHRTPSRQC

[29] = biological target: T1, GABA-A receptor; anion channel (Rattus norvegicus); conditions: Compound concentration 10.0 uM

Chain of Serine/threonine-protein kinase haspin (Homo sapiens) (Q8TF76 whole entry): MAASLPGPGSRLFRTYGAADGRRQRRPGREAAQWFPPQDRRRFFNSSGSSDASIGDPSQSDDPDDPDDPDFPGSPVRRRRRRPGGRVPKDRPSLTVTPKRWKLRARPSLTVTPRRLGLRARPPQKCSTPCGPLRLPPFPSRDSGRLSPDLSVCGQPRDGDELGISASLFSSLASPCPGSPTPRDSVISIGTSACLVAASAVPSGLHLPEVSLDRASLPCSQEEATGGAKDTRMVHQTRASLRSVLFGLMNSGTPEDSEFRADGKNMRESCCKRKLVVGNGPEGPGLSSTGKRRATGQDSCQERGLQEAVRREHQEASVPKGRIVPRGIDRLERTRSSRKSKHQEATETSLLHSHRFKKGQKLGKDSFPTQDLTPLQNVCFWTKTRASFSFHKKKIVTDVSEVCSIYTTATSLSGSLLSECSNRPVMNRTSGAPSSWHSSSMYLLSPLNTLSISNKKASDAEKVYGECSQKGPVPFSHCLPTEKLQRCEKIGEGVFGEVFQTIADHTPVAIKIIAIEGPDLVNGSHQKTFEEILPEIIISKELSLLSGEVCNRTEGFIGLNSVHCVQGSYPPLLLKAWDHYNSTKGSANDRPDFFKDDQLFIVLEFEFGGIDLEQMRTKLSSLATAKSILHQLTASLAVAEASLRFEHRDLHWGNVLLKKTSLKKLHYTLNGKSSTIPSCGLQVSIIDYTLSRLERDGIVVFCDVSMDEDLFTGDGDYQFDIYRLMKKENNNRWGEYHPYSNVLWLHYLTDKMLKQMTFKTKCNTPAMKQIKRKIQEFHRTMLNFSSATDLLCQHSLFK
Chain of Sigma non-opioid intracellular receptor 1 (Homo sapiens) (Q99720 whole entry): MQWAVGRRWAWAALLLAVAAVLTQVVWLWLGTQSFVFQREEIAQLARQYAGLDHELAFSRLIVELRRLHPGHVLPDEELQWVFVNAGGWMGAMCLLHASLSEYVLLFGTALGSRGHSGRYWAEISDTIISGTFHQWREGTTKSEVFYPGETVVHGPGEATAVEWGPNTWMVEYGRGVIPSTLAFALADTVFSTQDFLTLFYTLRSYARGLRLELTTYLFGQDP
Chain of Acetylcholine receptor subunit alpha (Homo sapiens) (P02708 whole entry): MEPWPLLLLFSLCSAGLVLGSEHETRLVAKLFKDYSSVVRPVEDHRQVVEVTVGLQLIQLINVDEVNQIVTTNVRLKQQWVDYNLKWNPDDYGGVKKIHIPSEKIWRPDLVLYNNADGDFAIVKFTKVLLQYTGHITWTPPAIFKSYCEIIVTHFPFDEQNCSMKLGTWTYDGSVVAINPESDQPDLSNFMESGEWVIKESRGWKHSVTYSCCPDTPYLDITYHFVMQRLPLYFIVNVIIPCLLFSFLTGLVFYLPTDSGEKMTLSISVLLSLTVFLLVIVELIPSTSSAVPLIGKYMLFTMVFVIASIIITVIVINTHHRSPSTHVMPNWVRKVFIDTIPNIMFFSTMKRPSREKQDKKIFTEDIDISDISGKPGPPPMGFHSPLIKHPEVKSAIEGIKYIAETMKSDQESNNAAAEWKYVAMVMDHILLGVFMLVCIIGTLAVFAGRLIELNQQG
Chain of Adenosine receptor A3 (Homo sapiens) (P0DMS8 whole entry): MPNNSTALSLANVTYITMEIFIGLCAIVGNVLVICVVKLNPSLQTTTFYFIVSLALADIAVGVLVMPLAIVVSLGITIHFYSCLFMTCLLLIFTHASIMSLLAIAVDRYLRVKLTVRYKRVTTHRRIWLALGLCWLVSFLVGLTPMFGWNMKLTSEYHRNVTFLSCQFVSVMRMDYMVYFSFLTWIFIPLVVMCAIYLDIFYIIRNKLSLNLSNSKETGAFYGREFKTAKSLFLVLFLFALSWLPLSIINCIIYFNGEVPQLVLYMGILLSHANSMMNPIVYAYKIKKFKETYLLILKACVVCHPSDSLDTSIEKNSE
Chain of D(3) dopamine receptor (Homo sapiens) (P35462 whole entry): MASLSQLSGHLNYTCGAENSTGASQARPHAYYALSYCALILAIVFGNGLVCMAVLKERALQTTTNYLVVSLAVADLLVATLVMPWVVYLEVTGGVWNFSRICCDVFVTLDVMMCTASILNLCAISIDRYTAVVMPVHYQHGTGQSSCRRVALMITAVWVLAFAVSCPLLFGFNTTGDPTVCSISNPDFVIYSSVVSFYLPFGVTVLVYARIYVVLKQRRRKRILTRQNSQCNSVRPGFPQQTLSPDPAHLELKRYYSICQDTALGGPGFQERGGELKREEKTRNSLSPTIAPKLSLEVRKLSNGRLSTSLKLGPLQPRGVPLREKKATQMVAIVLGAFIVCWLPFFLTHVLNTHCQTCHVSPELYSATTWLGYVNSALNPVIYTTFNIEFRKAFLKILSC
Chain of Gamma-aminobutyric acid type B receptor subunit 1 (Homo sapiens) (Q9UBS5 whole entry): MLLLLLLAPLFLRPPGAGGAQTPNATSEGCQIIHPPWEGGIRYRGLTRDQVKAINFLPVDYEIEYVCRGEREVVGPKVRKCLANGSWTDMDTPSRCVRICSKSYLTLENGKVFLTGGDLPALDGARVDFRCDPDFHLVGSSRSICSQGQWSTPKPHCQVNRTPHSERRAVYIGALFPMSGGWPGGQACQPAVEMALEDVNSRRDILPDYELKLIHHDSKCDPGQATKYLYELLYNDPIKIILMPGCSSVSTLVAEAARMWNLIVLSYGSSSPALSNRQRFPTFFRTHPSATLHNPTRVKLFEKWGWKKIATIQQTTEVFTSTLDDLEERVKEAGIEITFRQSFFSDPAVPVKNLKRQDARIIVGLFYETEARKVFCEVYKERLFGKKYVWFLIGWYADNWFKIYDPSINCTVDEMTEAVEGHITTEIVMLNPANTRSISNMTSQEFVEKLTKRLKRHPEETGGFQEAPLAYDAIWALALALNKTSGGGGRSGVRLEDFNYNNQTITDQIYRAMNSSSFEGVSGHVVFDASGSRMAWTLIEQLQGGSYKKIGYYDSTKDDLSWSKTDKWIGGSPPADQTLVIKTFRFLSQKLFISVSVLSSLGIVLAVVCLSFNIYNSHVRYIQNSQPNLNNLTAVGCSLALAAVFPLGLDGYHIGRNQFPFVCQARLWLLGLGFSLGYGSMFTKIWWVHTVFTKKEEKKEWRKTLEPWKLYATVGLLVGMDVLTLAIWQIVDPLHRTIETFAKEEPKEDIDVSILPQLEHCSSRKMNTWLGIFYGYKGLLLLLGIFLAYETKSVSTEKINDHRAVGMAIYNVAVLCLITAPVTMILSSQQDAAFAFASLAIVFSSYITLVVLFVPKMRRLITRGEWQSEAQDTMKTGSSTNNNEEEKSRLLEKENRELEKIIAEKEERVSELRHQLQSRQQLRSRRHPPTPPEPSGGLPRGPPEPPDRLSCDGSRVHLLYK
Chain of B1 bradykinin receptor (Homo sapiens) (P46663 whole entry): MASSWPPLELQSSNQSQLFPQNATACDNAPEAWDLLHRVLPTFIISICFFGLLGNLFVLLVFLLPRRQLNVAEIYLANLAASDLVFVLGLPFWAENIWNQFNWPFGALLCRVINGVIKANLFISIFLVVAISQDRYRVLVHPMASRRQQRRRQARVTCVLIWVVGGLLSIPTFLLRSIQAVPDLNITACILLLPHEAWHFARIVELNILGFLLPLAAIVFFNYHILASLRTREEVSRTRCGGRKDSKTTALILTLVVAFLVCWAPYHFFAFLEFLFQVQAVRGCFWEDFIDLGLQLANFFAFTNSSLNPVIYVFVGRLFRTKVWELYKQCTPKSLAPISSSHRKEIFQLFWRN
Chain of Macrophage metalloelastase (P39900 whole entry): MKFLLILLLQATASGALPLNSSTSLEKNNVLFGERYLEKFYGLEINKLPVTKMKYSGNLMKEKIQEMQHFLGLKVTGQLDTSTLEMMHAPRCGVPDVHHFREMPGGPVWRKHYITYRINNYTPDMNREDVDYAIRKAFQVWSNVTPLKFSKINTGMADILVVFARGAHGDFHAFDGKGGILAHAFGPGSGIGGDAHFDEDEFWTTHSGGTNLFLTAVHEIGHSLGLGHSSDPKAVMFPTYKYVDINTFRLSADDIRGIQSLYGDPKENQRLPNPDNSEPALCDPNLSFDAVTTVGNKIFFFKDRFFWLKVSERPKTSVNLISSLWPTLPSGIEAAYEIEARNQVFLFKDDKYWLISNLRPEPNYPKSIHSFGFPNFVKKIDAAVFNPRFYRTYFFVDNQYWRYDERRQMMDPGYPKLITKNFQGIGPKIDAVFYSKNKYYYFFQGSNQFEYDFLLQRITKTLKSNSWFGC
Chain of Kappa-type opioid receptor (Homo sapiens) (P41145 whole entry): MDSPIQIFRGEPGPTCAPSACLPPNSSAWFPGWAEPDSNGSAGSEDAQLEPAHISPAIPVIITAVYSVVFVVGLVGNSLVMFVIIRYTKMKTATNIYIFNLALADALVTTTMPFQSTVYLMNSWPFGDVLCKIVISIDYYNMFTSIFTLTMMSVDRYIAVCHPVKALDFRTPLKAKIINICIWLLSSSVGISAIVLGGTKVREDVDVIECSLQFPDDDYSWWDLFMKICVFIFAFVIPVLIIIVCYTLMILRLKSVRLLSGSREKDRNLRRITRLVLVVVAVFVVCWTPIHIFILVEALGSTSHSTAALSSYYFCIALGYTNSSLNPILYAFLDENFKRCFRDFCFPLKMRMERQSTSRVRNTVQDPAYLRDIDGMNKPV
Chain of Endothelin-1 receptor (Homo sapiens) (P25101 whole entry): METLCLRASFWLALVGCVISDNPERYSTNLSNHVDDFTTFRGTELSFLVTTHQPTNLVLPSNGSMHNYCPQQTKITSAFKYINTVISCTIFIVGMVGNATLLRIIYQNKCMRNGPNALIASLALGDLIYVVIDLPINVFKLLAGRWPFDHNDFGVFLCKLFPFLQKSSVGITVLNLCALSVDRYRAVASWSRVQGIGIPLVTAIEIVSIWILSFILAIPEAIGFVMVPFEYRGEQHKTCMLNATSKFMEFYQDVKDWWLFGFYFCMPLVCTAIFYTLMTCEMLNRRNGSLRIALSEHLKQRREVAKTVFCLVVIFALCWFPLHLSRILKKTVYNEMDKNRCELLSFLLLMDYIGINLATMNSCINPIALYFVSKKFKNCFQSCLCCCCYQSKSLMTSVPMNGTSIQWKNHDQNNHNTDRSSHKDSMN

O=C(O)[C@@H]1[C@@H](Cn2nnc3ccccc3c2=O)CC[C@H]1C(=O)c1ccc(OCCC2CCOCC2)cc1 [BAY-694]
residual activity [1]: 88%

O=C(O)[C@H]1[C@H](Cn2nnc3ccccc3c2=O)CC[C@@H]1C(=O)c1ccc(OCCC2CCOCC2)cc1 [BAY-7598]
residual activity [1]: 84%
inhibition (Mus musculus [2]): 4%
inhibition [3]: -7%
inhibition (Oryctolagus cuniculus): -1%
inhibition [4]: 13%
inhibition [5]: 2%
inhibition [6]: 15%
inhibition [7]: 19%
inhibition at 3 h, 10 µM [8]: -9% (not active)
inhibition (Mus musculus [9]): 0%
inhibition (Rattus norvegicus [10]): 10%
inhibition [11]: 0%
inhibition [12]: 10%
inhibition [13]: 17%
inhibition [14]: 12%
Kd [15]: 4 pM (active)
inhibition [16]: 18%
inhibition [17]: 3%
inhibition [18]: -9%
inhibition [19]: 0%
inhibition [20]: 9%
inhibition [21]: -6%
inhibition [22]: 7%
inhibition [23]: 7%
inhibition [24]: 6%
inhibition (Rattus norvegicus [25]): 4%
inhibition [26]: 1%
inhibition [27]: 6%
inhibition [28]: 0%
inhibition [29]: -2%
